Source: US10183936B2, “Hepatitis B core protein allosteric modulators” (priority 2014, dated 2019)

Columns and labels:
[1] = system: HBV viral production in AD38 cells; test: Viral load production in AD38 cells by quantitative PCR of the HBV core sequence in supernatant; format: cell-based; conditions: Hepatitis B virus, 144 h; 10 μM compound, 6 days at 37° C., viral load in supernatant compared against DMSO control wells; read-out: AD38 Viral Load (CpAM/DMSO %) at 10 μM
Experimental: (§1) Example 56: Assay Measuring Activity of Compounds on Viral Production in and on Viability of AD38 Cells
(§2) AD38 cells were then re-suspended with 10 mL of Treatment Medium and counted. Wells of a collagen coated 96-well NUNC microtiter plate were seeded at 50,000/well in 180 μL of Treatment Medium, and 20 μL of in treatment media with either 10% DMSO (Control) or a 10× solution of compound in 10% DMSO was added. Plates were incubated for 6 days at 37° C.
Viral load production was assayed by quantitative PCR of the core sequence. Briefly, 5 μL of clarified supematant was added to a PCR reaction mixture that contained forward primers HBV-f 5′-CTGTGCCTTGGGTGGCTTT-3′, Reverse primers HBV-r 5′-[…]-3′ and Fluorescent TaqMan™ Probes HBV-probe 5′-FAM/AGCTCCAAA/ZEN/[…]/3IABkFQ-3′ in Quanta Biosciences PerfeCTa® qPCR Toughmix®, and was subsequently on an Applied Biosystems VIIA7 in a final volume of 20 μL. The PCR mixture was incubated at 45° C. for 5 minutes, then 95° C. for 10 min, followed by 40 cycles of 10 seconds at 95° C. and 20 seconds at 60° C. Viral load was quantitated against known standards by using ViiA™ 7 Software. Viral load in the supematant from wells with treated cells were compared against viral load in supernatant from DMSO control wells (≥3 per plate).

AD38 cells = test: Viability of AD38 cells (Promega CellTiter-Glo) at the end of compound treatment; format: cell-based; conditions: 10 μM compound, 6 days, luminescence normalized against DMSO control wells (controls being 100%)
Experimental: as §1, §2
At the end of compound treatment period cell viability was assessed using a Promega CellTiter-Glo protocol. All supernatant was removed the previously treated 96-well microtiter plate, and 50 μL Tetracycline-free treatment medium (DMEM/F12 (1:1), lx Pen/step (cat#: 30-002-CL, Mediatech, Inc), with 2% FBS, Tet-system approved (cat#: 631106, Clontech), and 1% DMSO was added back to each well. Another 50 μL of CellTiter-Glo reagent solution (Promega, G7573) was then added at room temperature and the contents mixed for 2 minutes on an orbital shaker to induce cell lysis. This was followed by incubation at room temperature for 10 minutes to stabilize the luminescent signal. The luminescence was recorded for 0.2 seconds per well on a Tecan multimode platereader (Infinite M1000 pro). The luminescent signal from each well was normalized against that of untreated (DMSO) control wells. All results were reported percent viability (with controls being 100%).

Compound | activity at 10 µM [1] [%] | AD38 Viability Normalized Result (CPAM/DMSO %) at 10 μM (AD38 cells) [%]
O=C(NCc1ccccc1F)c1ccc2c(c1)NC(=O)c1ccccc1S2 [Compound 1167] | 57 | 124
O=C(NCc1cccc(F)c1)c1ccc2c(c1)NC(=O)c1ccccc1S2 [Compound 1168] | 10 | 117
O=C(NCC1CCCCC1)c1ccc2c(c1)NC(=O)c1ccccc1S2 [Compound 1169] | 39 | 107
O=C(NCCC12CC3CC(CC(C3)C1)C2)c1ccc2c(c1)NC(=O)c1ccccc1S2 [Compound 1170] | 1 | 95
COCCNC(=O)c1ccc2c(c1)NC(=O)c1ccccc1S2 [Compound 1171] | 49 | 103
O=C(NCCO)c1ccc2c(c1)NC(=O)c1ccccc1S2 [Compound 1172] | 51 | 107
O=C(NCC1CC1)c1ccc2c(c1)NC(=O)c1ccccc1S2 [Compound 1173] | 39 | 105
O=C(NCC1CCC1)c1ccc2c(c1)NC(=O)c1ccccc1S2 [Compound 1174] | 35 | 109
O=C(NCCN1CCOCC1)c1ccc2c(c1)NC(=O)c1ccccc1S2 [Compound 1175] | 30 | 123
CCC(CNC(=O)c1ccc2c(c1)NC(=O)c1ccccc1S2)c1ccccc1 (stereo not drawn) [Compound 1176] | 2 | 104
CC(Cc1cccc(O)c1)NC(=O)c1ccc2c(c1)NC(=O)c1ccccc1S2 (stereo not drawn) [Compound 1177] | 47 | 118
O=C(NCCc1ccc(OC(F)(F)F)cc1)c1ccc2c(c1)NC(=O)c1ccccc1S2 [Compound 1182] | 13 | 55
Cc1cccc(CCNC(=O)c2ccc3c(c2)NC(=O)c2ccccc2S3)c1 [Compound 1183] | 2 | 36
Cc1ccc(CCNC(=O)c2ccc3c(c2)NC(=O)c2ccccc2S3)cc1 [Compound 1184] | 1 | 0
CCc1ccc(CCNC(=O)c2ccc3c(c2)NC(=O)c2ccccc2S3)cc1 [Compound 1185] | 1 | 0
O=C(NCCc1ccc(C(F)(F)F)cc1)c1ccc2c(c1)NC(=O)c1ccccc1S2 [Compound 1186] | 1 | 39
Cc1ccccc1CNC(=O)c1ccc2c(c1)NC(=O)c1ccccc1S2 [Compound 1187] | 1 | 73
CCc1ccc(CNC(=O)c2ccc3c(c2)NC(=O)c2ccccc2S3)cc1 [Compound 1188] | 4 | 83
O=C(NCC12CC3CC(CC(C3)C1)C2)c1ccc2c(c1)NC(=O)c1ccccc1S2 [Compound 1189] | 1 | 85
O=C(NCCc1cccs1)c1ccc2c(c1)NC(=O)c1ccccc1S2 [Compound 1190] | 1 | 70
O=C(NCCC1CCOCC1)c1ccc2c(c1)NC(=O)c1ccccc1S2 [Compound 1191] | 14 | 121
O=C(NCCOc1ccccc1)c1ccc2c(c1)NC(=O)c1ccccc1S2 [Compound 1192] | 3 | 81
O=C(NCC1CCCC1)c1ccc2c(c1)NC(=O)c1ccccc1S2 [Compound 1193] | 4 | 90
CC(C)(C)c1ccc(CCNC(=O)c2ccc3c(c2)NC(=O)c2ccccc2S3)cc1 [Compound 1194] | 1 | 45

Compound | activity at 10 µM [1] [%] | AD38 Viability Normalized Result (CPAM/DMSO %) at 10 μM (AD38 cells) [%]
O=C(NCCc1cccc(C(F)(F)F)c1)c1ccc2c(c1)NC(=O)c1ccccc1S2 [Compound 1195] | 0 | 48
O=C(NCc1ccc(O)cc1)c1ccc2c(c1)NC(=O)c1ccccc1S2 [Compound 1196] | 2 | 95
O=C(NCc1ccc(F)cc1)c1ccc2c(c1)NC(=O)c1ccccc1S2 [Compound 1197] | 1 | 88
O=C(NCCC1CCCCC1)c1ccc2c(c1)NC(=O)c1ccccc1C2 [Compound 1198] | 3 | 60
O=C(NCCC1CCCCC1)c1ccc2c(c1)Sc1ccccc1C(=O)N2 [Compound 1199] | 19 | 109
O=C(NCCc1ccccc1)c1ccc2c(c1)Sc1ccccc1C(=O)N2 [Compound 1200] | 18 | 125
O=C(NCCc1cccc(OC(F)(F)F)c1)c1ccc2c(c1)NC(=O)c1ccccc1S2 [Compound 1201] | 1 | 50
O=C(NCc1cccc(O)c1)c1ccc2c(c1)NC(=O)c1ccccc1S2 [Compound 1202] | 7 | 107
O=C(NCc1cccc(OC(F)(F)F)c1)c1ccc2c(c1)NC(=O)c1ccccc1S2 [Compound 1203] | 3 | 89
O=C(NCCC1CCC(O)CC1)c1ccc2c(c1)NC(=O)c1ccccc1S2 (stereo not drawn) [Compound 1204] | 2 | 97
O=C(NCCC1CCCCC1)c1ccc2c(c1)NC(=O)c1ccccc1S2(=O)=O [Compound 1206, N-(2-cyclohexylethyl)-11-oxo-10, 11-dihydrodibenzo [b,f] [1,4] thiazepine-8-carboxamide 5,5-dioxide] | 10 | 106
O=C(CCC1CCCCC1)Nc1ccc2c(c1)NC(=O)c1ccccc1S2 [Compound 1207] | 24 | 99
O=C(NCCOc1ccc(F)cc1)c1ccc2c(c1)NC(=O)c1ccccc1S2 [Compound 1208] | 11 | 103
O=C(NCCC1CCCO1)c1ccc2c(c1)NC(=O)c1ccccc1S2 (stereo not drawn) [Compound 1209] | 1 | 102
O=C(NCc1ccccn1)c1ccc2c(c1)NC(=O)c1ccccc1S2 [Compound 1210] | 25 | 116
O=C(NCc1cccnc1)c1ccc2c(c1)NC(=O)c1ccccc1S2 [Compound 1211] | 1 | 106
CC(CNC(=O)c1ccc2c(c1)NC(=O)c1ccccc1S2)c1ccccc1 (stereo not drawn) [Compound 1212] | 1 | 72
CC(C)(CNC(=O)c1ccc2c(c1)NC(=O)c1ccccc1S2)c1ccccc1 [Compound 1213] | 2 | 55
CCOc1ccc(CCNC(=O)c2ccc3c(c2)NC(=O)c2ccccc2S3)cc1 [Compound 1214] | 2 | 94
O=C(NCCC1CCC(F)(F)CC1)c1ccc2c(c1)NC(=O)c1ccccc1S2 [Compound 1216] | 1 | 125
O=C(NCCC1CCC(F)CC1)c1ccc2c(c1)NC(=O)c1ccccc1S2 (stereo not drawn) [Compound 1217] | 1 | 37
O=C(NCc1ccccc1O)c1ccc2c(c1)NC(=O)c1ccccc1S2 [Compound 1219] | 5 | 100
O=C(NC[C@H](O)c1ccccc1)c1ccc2c(c1)NC(=O)c1ccccc1S2 [Compound 1220] | 2 | 94
C[C@@H](O)CNC(=O)c1ccc2c(c1)NC(=O)c1ccccc1S2 [Compound 1221] | 19 | 106
